The NIST ThermoML archive (doi:10.1016/j.jct.2013.09.039)
Numbers after ± are expanded uncertainties.

Assay: xn = mol fraction of the nth substance listed
Conditions: Liquid, Vibrating tube method

CCOC(=O)OCC [diethyl carbonate] + Cc1ccc(C)cc1
mass density (288.15 K, 100 kPa, x1 = 0.1014): 876.7 ± 2 kg/m3 | mass density (288.15 K, 100 kPa, x1 = 0.1346): 879.5 ± 2 kg/m3 | mass density (288.15 K, 100 kPa, x1 = 0.1949): 887.5 ± 2 kg/m3 | mass density (288.15 K, 100 kPa, x1 = 0.2767): 898.3 ± 2 kg/m3 | mass density (288.15 K, 100 kPa, x1 = 0.386): 909.2 ± 2 kg/m3 | mass density (288.15 K, 100 kPa, x1 = 0.4858): 920.7 ± 2 kg/m3 | mass density (288.15 K, 100 kPa, x1 = 0.5444): 928.4 ± 2 kg/m3 | mass density (288.15 K, 100 kPa, x1 = 0.5923): 933.9 ± 2 kg/m3 | mass density (288.15 K, 100 kPa, x1 = 0.6718): 942.3 ± 2 kg/m3 | mass density (288.15 K, 100 kPa, x1 = 0.7676): 953.2 ± 2 kg/m3 | mass density (288.15 K, 100 kPa, x1 = 0.8313): 960.6 ± 2 kg/m3 | mass density (288.15 K, 100 kPa, x1 = 0.9044): 968.7 ± 2 kg/m3 | mass density (288.15 K, 5000 kPa, x1 = 0.1014): 880.1 ± 2 kg/m3 | mass density (288.15 K, 5000 kPa, x1 = 0.1346): 884.1 ± 2 kg/m3 | mass density (288.15 K, 5000 kPa, x1 = 0.1949): 891.2 ± 2 kg/m3 | mass density (288.15 K, 5000 kPa, x1 = 0.2767): 900.9 ± 2 kg/m3 | mass density (288.15 K, 5000 kPa, x1 = 0.386): 913.4 ± 2 kg/m3 | mass density (288.15 K, 5000 kPa, x1 = 0.4858): 924.7 ± 2 kg/m3 | mass density (288.15 K, 5000 kPa, x1 = 0.5444): 931.5 ± 2 kg/m3 | mass density (288.15 K, 5000 kPa, x1 = 0.5923): 937 ± 2 kg/m3 | mass density (288.15 K, 5000 kPa, x1 = 0.6718): 946.4 ± 2 kg/m3 | mass density (288.15 K, 5000 kPa, x1 = 0.7676): 957.4 ± 2 kg/m3 | mass density (288.15 K, 5000 kPa, x1 = 0.8313): 964.8 ± 2 kg/m3 | mass density (288.15 K, 5000 kPa, x1 = 0.9044): 973.1 ± 2 kg/m3 | mass density (288.15 K, 10000 kPa, x1 = 0.1014): 883.7 ± 2 kg/m3 | mass density (288.15 K, 10000 kPa, x1 = 0.1346): 887.8 ± 2 kg/m3 | mass density (288.15 K, 10000 kPa, x1 = 0.1949): 894.8 ± 2 kg/m3 | mass density (288.15 K, 10000 kPa, x1 = 0.2767): 904.5 ± 2 kg/m3 | mass density (288.15 K, 10000 kPa, x1 = 0.386): 917.2 ± 2 kg/m3 | mass density (288.15 K, 10000 kPa, x1 = 0.4858): 928.5 ± 2 kg/m3 | mass density (288.15 K, 10000 kPa, x1 = 0.5444): 935.3 ± 2 kg/m3 | mass density (288.15 K, 10000 kPa, x1 = 0.5923): 941 ± 2 kg/m3 | mass density (288.15 K, 10000 kPa, x1 = 0.6718): 950.3 ± 2 kg/m3 | mass density (288.15 K, 10000 kPa, x1 = 0.7676): 961.3 ± 2 kg/m3 | mass density (288.15 K, 10000 kPa, x1 = 0.8313): 968.9 ± 2 kg/m3 | mass density (288.15 K, 10000 kPa, x1 = 0.9044): 977.2 ± 2 kg/m3 | mass density (288.15 K, 20000 kPa, x1 = 0.1014): 890.3 ± 2 kg/m3 | mass density (288.15 K, 20000 kPa, x1 = 0.1346): 894.3 ± 2 kg/m3 | mass density (288.15 K, 20000 kPa, x1 = 0.1949): 901.3 ± 2 kg/m3 | mass density (288.15 K, 20000 kPa, x1 = 0.2767): 911.3 ± 2 kg/m3 | mass density (288.15 K, 20000 kPa, x1 = 0.386): 924.1 ± 2 kg/m3 | mass density (288.15 K, 20000 kPa, x1 = 0.4858): 935.5 ± 2 kg/m3 | mass density (288.15 K, 20000 kPa, x1 = 0.5444): 942.5 ± 2 kg/m3 | mass density (288.15 K, 20000 kPa, x1 = 0.5923): 948 ± 2 kg/m3 | mass density (288.15 K, 20000 kPa, x1 = 0.6718): 957.5 ± 2 kg/m3 | mass density (288.15 K, 20000 kPa, x1 = 0.7676): 968.7 ± 2 kg/m3 | mass density (288.15 K, 20000 kPa, x1 = 0.8313): 976.4 ± 2 kg/m3 | mass density (288.15 K, 20000 kPa, x1 = 0.9044): 984.7 ± 2 kg/m3 | mass density (288.15 K, 30000 kPa, x1 = 0.1014): 896.1 ± 2 kg/m3 | mass density (288.15 K, 30000 kPa, x1 = 0.1346): 900.3 ± 2 kg/m3 | mass density (288.15 K, 30000 kPa, x1 = 0.1949): 907.5 ± 2 kg/m3 | mass density (288.15 K, 30000 kPa, x1 = 0.2767): 917.4 ± 2 kg/m3 | mass density (288.15 K, 30000 kPa, x1 = 0.386): 930.4 ± 2 kg/m3 | mass density (288.15 K, 30000 kPa, x1 = 0.4858): 941.9 ± 2 kg/m3 | mass density (288.15 K, 30000 kPa, x1 = 0.5444): 949.1 ± 2 kg/m3 | mass density (288.15 K, 30000 kPa, x1 = 0.5923): 954.7 ± 2 kg/m3 | mass density (288.15 K, 30000 kPa, x1 = 0.6718): 964.3 ± 2 kg/m3 | mass density (288.15 K, 30000 kPa, x1 = 0.7676): 975.6 ± 2 kg/m3 | mass density (288.15 K, 30000 kPa, x1 = 0.8313): 983.3 ± 2 kg/m3 | mass density (288.15 K, 30000 kPa, x1 = 0.9044): 991.9 ± 2 kg/m3 | mass density (288.15 K, 40000 kPa, x1 = 0.1014): 902.1 ± 2 kg/m3 | mass density (288.15 K, 40000 kPa, x1 = 0.1346): 906.3 ± 2 kg/m3 | mass density (288.15 K, 40000 kPa, x1 = 0.1949): 913.4 ± 2 kg/m3 | mass density (288.15 K, 40000 kPa, x1 = 0.2767): 923.5 ± 2 kg/m3 | mass density (288.15 K, 40000 kPa, x1 = 0.386): 936.6 ± 2 kg/m3 | mass density (288.15 K, 40000 kPa, x1 = 0.4858): 948.3 ± 2 kg/m3 | mass density (288.15 K, 40000 kPa, x1 = 0.5444): 955.4 ± 2 kg/m3 | mass density (288.15 K, 40000 kPa, x1 = 0.5923): 961.2 ± 2 kg/m3 | mass density (288.15 K, 40000 kPa, x1 = 0.6718): 970.9 ± 2 kg/m3 | mass density (288.15 K, 40000 kPa, x1 = 0.7676): 982.3 ± 2 kg/m3 | mass density (288.15 K, 40000 kPa, x1 = 0.8313): 990.1 ± 2 kg/m3 | mass density (288.15 K, 40000 kPa, x1 = 0.9044): 998.6 ± 2 kg/m3 | mass density (298.15 K, 100 kPa, x1 = 0.1014): 867.6 ± 2 kg/m3 | mass density (298.15 K, 100 kPa, x1 = 0.1346): 871.5 ± 2 kg/m3 | mass density (298.15 K, 100 kPa, x1 = 0.1949): 878.1 ± 2 kg/m3 | mass density (298.15 K, 100 kPa, x1 = 0.2767): 887.5 ± 2 kg/m3 | mass density (298.15 K, 100 kPa, x1 = 0.386): 899.8 ± 2 kg/m3 | mass density (298.15 K, 100 kPa, x1 = 0.4858): 910.7 ± 2 kg/m3 | mass density (298.15 K, 100 kPa, x1 = 0.5444): 916.8 ± 2 kg/m3 | mass density (298.15 K, 100 kPa, x1 = 0.5923): 922.8 ± 2 kg/m3 | mass density (298.15 K, 100 kPa, x1 = 0.6718): 931.7 ± 2 kg/m3 | mass density (298.15 K, 100 kPa, x1 = 0.7676): 942.4 ± 2 kg/m3 | mass density (298.15 K, 100 kPa, x1 = 0.8313): 949.8 ± 2 kg/m3 | mass density (298.15 K, 100 kPa, x1 = 0.9044): 957.6 ± 2 kg/m3 | mass density (298.15 K, 5000 kPa, x1 = 0.1014): 871.9 ± 2 kg/m3 | mass density (298.15 K, 5000 kPa, x1 = 0.1346): 875.8 ± 2 kg/m3 | mass density (298.15 K, 5000 kPa, x1 = 0.1949): 882.4 ± 2 kg/m3 | mass density (298.15 K, 5000 kPa, x1 = 0.2767): 892 ± 2 kg/m3 | mass density (298.15 K, 5000 kPa, x1 = 0.386): 904.4 ± 2 kg/m3 | mass density (298.15 K, 5000 kPa, x1 = 0.4858): 915.2 ± 2 kg/m3 | mass density (298.15 K, 5000 kPa, x1 = 0.5444): 922 ± 2 kg/m3 | mass density (298.15 K, 5000 kPa, x1 = 0.5923): 927.4 ± 2 kg/m3 | mass density (298.15 K, 5000 kPa, x1 = 0.6718): 936.5 ± 2 kg/m3 | mass density (298.15 K, 5000 kPa, x1 = 0.7676): 947.3 ± 2 kg/m3 | mass density (298.15 K, 5000 kPa, x1 = 0.8313): 954.7 ± 2 kg/m3 | mass density (298.15 K, 5000 kPa, x1 = 0.9044): 962.7 ± 2 kg/m3 | mass density (298.15 K, 10000 kPa, x1 = 0.1014): 875.1 ± 2 kg/m3 | mass density (298.15 K, 10000 kPa, x1 = 0.1346): 879 ± 2 kg/m3 | mass density (298.15 K, 10000 kPa, x1 = 0.1949): 885.8 ± 2 kg/m3 | mass density (298.15 K, 10000 kPa, x1 = 0.2767): 895.4 ± 2 kg/m3 | mass density (298.15 K, 10000 kPa, x1 = 0.386): 907.7 ± 2 kg/m3 | mass density (298.15 K, 10000 kPa, x1 = 0.4858): 918.8 ± 2 kg/m3 | mass density (298.15 K, 10000 kPa, x1 = 0.5444): 925.6 ± 2 kg/m3 | mass density (298.15 K, 10000 kPa, x1 = 0.5923): 931.1 ± 2 kg/m3 | mass density (298.15 K, 10000 kPa, x1 = 0.6718): 940.3 ± 2 kg/m3 | mass density (298.15 K, 10000 kPa, x1 = 0.7676): 951 ± 2 kg/m3 | mass density (298.15 K, 10000 kPa, x1 = 0.8313): 958.4 ± 2 kg/m3 | mass density (298.15 K, 10000 kPa, x1 = 0.9044): 966.6 ± 2 kg/m3
